Twelve compounds from patent US20200289609A1, “PEPTIDOMIMETIC MACROCYCLES AND USES THEREOF” (Aileron Therapeutics, Inc., priority 2019, published 2020) can be followed below.

In general, EC50 refers to the concentration needed to bring the measured effect to its halfway point. What is called IC50 is the concentration needed to halve the response being measured. Read a low IC50 as inhibition by little substance. The term Ki denotes a dissociation constant, usually derived from enzyme kinetics or from competition with a known ligand.

Data set [1] relates to RKO. In words: Cell viability assay (MTT), RKO. It is filed as cell-based. Particulars: read-out: RKO EC50 (72 h), RKO cells. The method, then: Row H of the plate contained the controls. Wells H1-H3 received 20 μL of assay media.
Further dilutions were used for potent peptides.
80 µL of assay media was removed from each well. […] Cell viability was analyzed against the DMSO controls.

Data set [2] has as its target T1, MDMX (Homo sapiens, UniProt O15151).
T1 sequence (O15151 1-125): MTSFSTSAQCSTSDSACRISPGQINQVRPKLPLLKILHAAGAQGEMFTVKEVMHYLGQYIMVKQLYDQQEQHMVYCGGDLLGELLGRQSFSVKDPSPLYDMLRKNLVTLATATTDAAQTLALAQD
In words: Competitive fluorescence polarization assay for MDMX. The data set is classed as binding. (In general: In fluorescence polarisation assays a small probe gives low polarisation when free and higher when bound to something large.)
Method: MDMX (40 kD) was diluted into FP buffer (high-salt buffer 200 mM NaCl, 5 mM CHAPS, pH 7.5) to make a 300 nM (2×) working stock solution. 20 μl of the 300 nM (2×) of protein stock solution was added into each well of 96-well black microplate. 1 mM (in 100% DMSO) of a FAM-labeled linear peptide was diluted with DMSO to a concentration of 100 μM (dilution 1:10). The solution was diluted from 100 μM to 10 μM with water (dilution 1:10), and diluted further with FP buffer from 10 μM to 40 nM (dilution 1:250). […] The diluted FAM-labeled peptide was kept in the dark until use. An unlabeled peptide dose plate was prepared with FP buffer starting with a concentration of 5 μM (final) of a peptide. […] 10 mM (in 100% DMSO) of the solution was diluted with DMSO to prepare a 5 mM (dilution 1:2) solution. The solution was diluted from 5 mM to 500 μM with H2O (dilution 1:10), and diluted further with FP buffer from 500 μM to 20 μM (dilution 1:25). […] 10 μl of the serially diluted unlabeled peptides were added to each well, which was filled with 20 μl of the 300 nM protein solution. 10 μl of the 10 nM (4×) FAM-labeled peptide solution was added into each well, and the wells were incubated for 3 h before reading.

Data set [3] deals with MDM2 (Homo sapiens, UniProt Q00987). In words: Competitive fluorescence polarization assay for MDM2. The data set is classed as binding.
Method: 1 mM of FAM-labeled linear peptide (in 100% DMSO) was diluted to 100 μM with DMSO (dilution 1:10). Then, diluted solution was further diluted from 100 μM to 10 μM with water (dilution 1:10), and diluted again with FP buffer from 10 μM to 40 nM (dilution 1:250). […] The diluted FAM-labeled peptides were kept in the dark until use.
Unlabeled peptide dose plates were prepared with FP buffer starting with 1 μM (final) of the peptide. […] 10 mM of the solution (in 100% DMSO) with DMSO to 5 mM (dilution 1:2); dilution from 5 mM to 500 μM with H2O (dilution 1:10); and dilution with FP buffer from 500 μM to 20 μM (dilution 1:25). […] 10 μl of 10 nM (4×) of FAM-labeled peptide was added into each well, and the wells were incubated for 3 h before being read.
The test system of data set [4] is H211 xenograft tumors. In words: Anti-tumor activity of topotecan with AP-1, H211 model. The data set is classed as in vivo, nu/nu mice. The settings on record: H211, topotecan days 1-5, FIG. 17C. As for the experimental part:
(§1) C57BL/6 mice bearing established syngeneic MC38 colon cancer tumors, or nu/nu mice bearing established H69 or H211 xenograft tumors were treated with topotecan on days 1-5 and either AP-1 or vehicle on days 0-4. Median tumor volume and mouse survival was assessed.

Data set [5] deals with gut tissue. In words: Topotecan-induced mucositis (gut histopathology). The data set is classed as in vivo, C57BL/6 mice. Particulars: Group 3: […] topotecan days 2-6, 10 mice. As for the experimental part: The effect of a peptidomimetic macrocycle of the disclosure on topotecan-induced mucositis is assessed in a controlled, in vivo study. Four groups of mice (10 mice per group) are involved in the study, and administration of agents occurs over a 6-day treatment period. The first group of mice (Group 1) is treated with a vehicle control on days 2, 3, 4, 5, and 6 of the treatment period. The second group of mice (Group 2) is treated intravenously with 2.4 mg/kg of a peptidomimetic macrocycle on days 1, 2, 3, 4, and 5 of a 6-day treatment period. The third group of mice (Group 3) is treated with 1.5 mg/kg of topotecan on days 2, 3, 4, 5, and 6 of the 6-day treatment period. The fourth group of mice (Group 4) is treated with 2.4 mg/kg of the peptidomimetic macrocycle on days 1, 2, 3, 4, and 5 of the 6-day treatment period and 1.5 mg/kg of topotecan on days 2, 3, 4, 5, and 6 of the 6-day treatment period. Gut samples are then taken from mice on days 7 and 9 post treatment. Histopathology analysis of gut samples is performed to assess hypertrophy/hyperplasia. In some embodiments, all gut samples from mice in Groups 1 and 2 receive a hypertrophy/hyperplasia score of 0. […]
C57BL/6 mice (n=10 per group) were divided into four treatment groups. […] Images and gut tissues and quantification of pathology scores can be seen in FIG. 24A.

Data set [6] concerns MC38 colon cancer tumors. Put plainly: Anti-tumor activity of topotecan with AP-1, MC38 model. The data set is classed as in vivo, C57BL/6 mice. Particulars: MC38, topotecan days 1-5, FIG. 17A. The method, then:
as §1

In data set [7] the test system is H69 xenograft tumors. In words: Anti-tumor activity of topotecan with AP-1, H69 model. Particulars: H69, topotecan days 1-5, FIG. 17B. It is filed as in vivo, nu/nu mice. As for the experimental part:
as §1

The structures appear in SMILES notation. Where only a bound is given, the exact number is not on record here.

Sequence of MDM2 (Q00987 1-125): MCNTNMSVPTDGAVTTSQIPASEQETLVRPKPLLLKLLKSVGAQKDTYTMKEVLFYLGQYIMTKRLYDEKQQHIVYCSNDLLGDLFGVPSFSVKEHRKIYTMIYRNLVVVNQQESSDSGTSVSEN

As to `CC(=O)N[C@@H](CC(C)C)C(=O)N[C@H](C(=O)N[C@@H](Cc1ccccc1)C(=O)N[C@]1(C)CCCCCCC=CCCC[C@@](C)(C(=O)N[C@@H](CO)C(=O)N[C@@H](C)C(=O)N[C@@H](C)C(N)=O)NC(=O)[C@H](CC2CCCCC2)NC(=O)[C@H](CCC(N)=O)NC(=O)[C@H](C)NC(=O)[C@H](Cc2c[nH]c3ccccc23)NC(=O)[C@H](Cc2ccc(O)cc2)NC(=O)[C@H](CCC(=O)O)NC1=O)[C@@H](C)O` (single isomer, unassigned) [compound 148], the concentration for a half-maximal effect (EC50) in data set [1] lay within 1000 to 30000 nM.
Turning to `CC(=O)N[C@@H](CC(C)C)C(=O)N[C@H](C(=O)N[C@@H](Cc1ccccc1)C(=O)N[C@]1(C)CCCCCCC=CCCC[C@@](C)(C(=O)N[C@@H](CO)C(=O)N[C@@H](C)C(=O)N[C@@H](C)C(N)=O)NC(=O)[C@H](C2CCCC2)NC(=O)[C@H](CCC(N)=O)NC(=O)[C@H](C)NC(=O)[C@H](Cc2c[nH]c3ccccc23)NC(=O)[C@H](Cc2ccc(O)cc2)NC(=O)[C@H](CCC(=O)O)NC1=O)[C@@H](C)O` (single isomer, unassigned) [compound 150], the EC50 in data set [1] is 1000 to 30000 nM.
Turning to `CC(=O)N[C@@H](CC(C)C)C(=O)N[C@H](C(=O)N[C@@H](C)C(=O)N[C@]1(C)CCCCCCC=CCCC[C@@](C)(C(=O)N[C@@H](CO)C(=O)N[C@@H](C)C(=O)N[C@@H](C)C(N)=O)NC(=O)[C@H](CC2CCC2)NC(=O)[C@H](CCC(N)=O)NC(=O)[C@H](C)NC(=O)[C@H](Cc2c[nH]c3ccccc23)NC(=O)[C@H](Cc2ccc(O)cc2)NC(=O)[C@H](CCC(=O)O)NC1=O)[C@@H](C)O` (single isomer, unassigned) [compound 252], in data set [2], the IC50 is > 1000 nM and the Ki is > 1000 nM. In data set [3], this compound showed an IC50 of 100 to 1000 nM and an inhibitory constant (Ki) of 100 to 1000 nM.
With `CC(=O)N[C@@H](CCC(=O)O)C(=O)N[C@H](C(=O)N[C@@H](Cc1ccccc1)C(=O)N[C@]1(C)CCCCCCC=CCCC[C@@](C)(C(=O)N[C@@H](C)C(=O)N[C@@H](C)C(=O)N[C@@H](C)C(=O)N[C@@H](C)C(=O)N[C@@H](C)C(=O)N[C@H](C)C(N)=O)NC(=O)[C@H](CC(C)C)NC(=O)[C@H](CCC(N)=O)NC(=O)[C@H](C)NC(=O)[C@H](Cc2c[nH]c3ccccc23)NC(=O)[C@H](Cc2ccc(O)cc2)NC(=O)[C@H](CCC(=O)O)NC1=O)[C@@H](C)O` (single isomer, unassigned) [compound 341], the concentration for a half-maximal effect (EC50) in data set [1] lay in the range of 1000 to 30000 nM.
The same measure, in the same setting: the same measure for `CC(=O)N[C@@H](CC(C)C)C(=O)N[C@H](C(=O)N[C@@H](Cc1ccccc1)C(=O)N[C@]1(C)CCCCCCC=CCCC[C@@](C)(C(=O)N[C@@H](CO)C(=O)N[C@@H](C)C(=O)N[C@@H](C)C(=O)N[C@H](C)C(N)=O)NC(=O)[C@H](CC2CCC2)NC(=O)[C@H](CCC(N)=O)NC(=O)[C@H](C)NC(=O)[C@H](Cc2c[nH]c3ccccc23)NC(=O)[C@H](Cc2ccc(O)cc2)NC(=O)[C@H](CCC(=O)O)NC1=O)[C@@H](C)O` (single isomer, unassigned) [compound 353]: 1000 to 30000 nM; for `CC(=O)N[C@@H](C)C(=O)N[C@@H](CC(C)C)C(=O)N[C@H](C(=O)N[C@@H](Cc1ccccc1)C(=O)N[C@]1(C)CCCCCCC=CCCC[C@@](C)(C(=O)N[C@@H](CO)C(=O)N[C@@H](C)C(=O)N[C@@H](C)C(=O)N[C@H](C)C(N)=O)NC(=O)[C@H](CC2CCC2)NC(=O)[C@H](CCC(N)=O)NC(=O)[C@H](C)NC(=O)[C@H](Cc2c[nH]c3ccccc23)NC(=O)[C@H](Cc2ccc(O)cc2)NC(=O)[C@H](CCC(=O)O)NC1=O)[C@@H](C)O` (single isomer, unassigned) [compound 355]: 1000 to 30000 nM; for `CC(=O)N[C@@H](C)C(=O)N[C@@H](C)C(=O)N[C@@H](CC(C)C)C(=O)N[C@H](C(=O)N[C@@H](Cc1ccccc1)C(=O)N[C@]1(C)CCCCCCC=CCCC[C@@](C)(C(=O)N[C@@H](CO)C(=O)N[C@@H](C)C(=O)N[C@@H](C)C(=O)N[C@@H](C)C(=O)N[C@H](C)C(N)=O)NC(=O)[C@H](CC2CCC2)NC(=O)[C@H](CCC(N)=O)NC(=O)[C@H](C)NC(=O)[C@H](Cc2c[nH]c3ccccc23)NC(=O)[C@H](Cc2ccc(O)cc2)NC(=O)[C@H](CCC(=O)O)NC1=O)[C@@H](C)O` (single isomer, unassigned) [compound 358]: 1000 to 30000 nM.
Still for that read-out and setting: the same measure for `CC(=O)N[C@@H](C)C(=O)N[C@@H](C)C(=O)N[C@@H](CC(C)C)C(=O)N[C@H](C(=O)N[C@@H](Cc1ccccc1)C(=O)N[C@]1(C)CCCCCCC=CCCC[C@@](C)(C(=O)N[C@@H](CO)C(=O)N[C@@H](C)C(=O)N[C@@H](C)C(=O)N[C@@H](C)C(=O)N[C@H](C)C(N)=O)NC(=O)[C@H](CC2CCC2)NC(=O)[C@H](CCC(N)=O)NC(=O)[C@H](C)NC(=O)[C@H](Cc2c[nH]c3ccccc23)NC(=O)[C@H](Cc2ccc(O)cc2)NC(=O)[C@H](CCC(=O)O)NC1=O)[C@@H](C)O` (single isomer, unassigned) [compound 359]: 1000 to 30000 nM.
Turning to `CC[C@H](C)[C@H](NC(=O)[C@H](C)NC(=O)[C@H](C)NC(=O)[C@]1(C)CCCC=CCCCCCC[C@@](C)(NC(=O)[C@H](Cc2ccccc2)NC(=O)[C@@H](NC(=O)[C@H](CC(C)C)NC(=O)CN(C)C)[C@@H](C)O)C(=O)N[C@@H](CCC(=O)O)C(=O)N[C@@H](Cc2ccc(C(=O)O)cc2)C(=O)N[C@@H](Cc2c[nH]c3ccccc23)C(=O)N[C@@H](C)C(=O)N[C@@H](CCC(N)=O)C(=O)N[C@@H](CC2CCC2)C(=O)N1)C(=O)N[C@H](C)C(N)=O` (single isomer, unassigned) [compound 440], the EC50 in data set [1] fell in the range of 1000 to 30000 nM.
`CCCC[C@H](NC(=O)[C@H](C)NC(=O)[C@H](C)NC(=O)[C@]1(C)CCC/C=C/CCCCCC[C@@](C)(NC(=O)[C@H](Cc2ccccc2)NC(=O)[C@@H](NC(=O)[C@H](CC(C)C)NC(C)=O)[C@@H](C)O)C(=O)N[C@@H](C)C(=O)N[C@@H](Cc2ccc(O)cc2)C(=O)N[C@@](C)(Cc2c[nH]c3ccccc23)C(=O)N[C@@H](C)C(=O)N[C@@H](CCC(N)=O)C(=O)N[C@@H](CC(C)C)C(=O)N1)C(=O)N[C@@H](C)C(N)=O` [compound 388]: in data set [1], the EC50 is 1000 to 30000 nM.
Still for that read-out and setting: then `CC(C)C[C@H](NC(=O)CN(C)C)C(=O)N[C@H](C(=O)N[C@@H](Cc1ccccc1)C(=O)N[C@]1(C)CCCCCCC=CCCC[C@@](C)(C(=O)N[C@@H](CO)C(=O)N[C@@H](C)C(=O)N[C@@H](C)C(N)=O)NC(=O)[C@H](CC2CCC2)NC(=O)[C@H](CCC(N)=O)NC(=O)[C@H](C)NC(=O)[C@H](Cc2c[nH]c3ccccc23)NC(=O)[C@H](Cc2ccc(O)cc2)NC(=O)[C@H](CCC(=O)O)NC1=O)[C@@H](C)O` [compound 435], with 1000 to 30000 nM.
As for `CC[C@@]1(O)C(=O)OCc2c1cc1n(c2=O)Cc2cc3c(CN(C)C)c(O)ccc3nc2-1` [topotecan], in data set [4], the survival result is listed as “increased” and the tumor volumes result was “decreased”. Moreover, in data set [5], the “mice with hyperplasia/hypertrophy score of 3” value was “about 70%” and the “mice with hypertrophy/hyperplasia score of 2” value is recorded as “about 30%”. Also, in data set [6], the survival result is “increased” and the tumor volumes entry is given as “decreased”. In data set [7], the survival entry was “increased” and the tumor volumes entry is “decreased”.
